The supplement of paper PMC10307832

Columns and labels:
Experiment in all cases: relative viability (nuclei count vs DMSO), 5 days (fraction); higher = more cells survive
[1] = compound: C1=CC2=NC=CN=C2C=C1/C=C/3\C(=O)NC(=O)S3 + COc1cc2c(Oc3ccc(NC(=O)C4(C(=O)Nc5ccc(F)cc5)CC4)cc3F)ccnc2cc1OCCCN1CCOCC1 [Foretinib] (partner 0.25 µM)
Method in brief: (§1)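 Lung cancer cell lines, seeded in 1536-well plates, were treated the following day by pin tool with a single drug or with five library-drug doses (not always all listed) in √10 steps on top of a fixed anchor-drug dose. Cells were fixed and nuclei stained in one step after 5 days, and nuclei were counted. Relative viability is the nuclei count for treated wells divided by that for vehicle wells, reported as medians of duplicate plates.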

[2] = compound: C1=CC2=NC=CN=C2C=C1/C=C/3\C(=O)NC(=O)S3 + Cc1cc(Nc2cc(N3CCN(C)CC3)nc(Sc3ccc(NC(=O)C4CC4)cc3)n2)n[nH]1 [Tozasertib] (partner 0.1 µM)
Method in brief: as §1

[3] = compound: C1=CC2=NC=CN=C2C=C1/C=C/3\C(=O)NC(=O)S3 + CC(=O)Nc1cccc(-n2c(=O)n(C3CC3)c(=O)c3c(Nc4ccc(I)cc4F)n(C)c(=O)c(C)c32)c1 [Trametinib] (partner 0.02 µM)
Method in brief: as §1

[4] = compound: C1=CC2=NC=CN=C2C=C1/C=C/3\C(=O)NC(=O)S3 + CC1(C)CCC(c2ccc(Cl)cc2)=C(CN2CCN(c3ccc(C(=O)NS(=O)(=O)c4ccc(N[C@H](CCN5CCOCC5)CSc5ccccc5)c(S(=O)(=O)C(F)(F)F)c4)cc3)CC2)C1 [Navitoclax] (partner 0.5 µM)
Method in brief: as §1

Cell Line: UMC-11
- relative viability ([1]; first compound 0.02 µM): 1.03
- relative viability ([1]; first compound 0.06325 µM): 1.03
- relative viability ([1]; first compound 0.2 µM): 1.09
- relative viability ([1]; first compound 0.6325 µM): 0.964
- relative viability ([1]; first compound 2 µM): 1.11
- relative viability ([2]; first compound 0.02 µM): 0.205
- relative viability ([2]; first compound 0.06325 µM): 0.193
- relative viability ([2]; first compound 0.2 µM): 0.202
- relative viability ([2]; first compound 0.6325 µM): 0.203
- relative viability ([2]; first compound 2 µM): 0.192
- relative viability ([3]; first compound 0.02 µM): 0.697
- relative viability ([3]; first compound 0.06325 µM): 0.792
- relative viability ([3]; first compound 0.2 µM): 0.75
- relative viability ([3]; first compound 0.6325 µM): 0.663
- relative viability ([3]; first compound 2 µM): 0.81
- relative viability ([4]; first compound 0.02 µM): 0.296
- relative viability ([4]; first compound 0.06325 µM): 0.397
- relative viability ([4]; first compound 0.2 µM): 0.312
- relative viability ([4]; first compound 0.6325 µM): 0.307
- relative viability ([4]; first compound 2 µM): 0.302
